Results taken from US7345144B2, “Cyclic peptides for treatment of cachexia” (Palatin Technologies, Inc., priority 2001, dated 2008).

What was measured:
hMC3-R [1] = target: T1, hMC3-R (Homo sapiens, UniProt P41968); test: Competitive inhibition binding assay using [I125]-NDP-α-MSH, hMC3-R (HEK-293 membranes); details: read-out: Ki (nM) MC3-R; HEK-293 cells transfected with hMC3-R
[2] = ICV feeding study in rats; format: in vivo; details: rat, 21 hours
Description: (§1) Change in food intake and body weight is evaluated for selected peptides. Rats with indwelling intracerebroventricular cannulas (ICV rats) are obtained from Hilltop Lab Animals, Inc. (Scottdale, Pa.). Animals are individually housed in conventional plexiglass hanging cages and maintained on a controlled 12 hour on/off light cycle. Water and powdered (LabDiet, 5P00 Prolab RMH 3000) or pelleted (Harlan Teklad 2018 18% Protein Rodent Diet) food is provided ad libitum. For 1 week before treatment, 24-hour food intake and body weight change is recorded to assess a baseline for the group during vehicle treatment. The rats are dosed ICV with vehicle or selected peptides (0.1-3 nmol). The changes in body weight and food intake for the 24 hour period after dosing are determined. The changes in body weight and food intake for the 48 hour and 72 hour periods after dosing are also measured to determine reversal of changes in body weight and food intake effects back to baseline levels.
All animals were dosed on the first day with saline ICV, and given a pre-weighed food bowl with food weight recorded at 2 and 21 hours post-ICV injection. On day 2, animals were randomized based on the 21 hour food consumption, with animals eliminated due to low food consumption or food spills. […] Food weights were again recorded at 2, 4, 21 and 24 hours post-ICV injection. In some instances, multiple different tests were conducted with each group containing between 8 and 12 members; the average value is given.

hMC4-R = hMC4-R (Homo sapiens, UniProt P32245); test: Competitive inhibition binding assay using [I125]-NDP-α-MSH, hMC4-R (HEK-293 membranes); details: read-out: Ki (nM) MC4-R; HEK-293 cells transfected with hMC4-R
Sequence of hMC4-R (P32245 whole entry): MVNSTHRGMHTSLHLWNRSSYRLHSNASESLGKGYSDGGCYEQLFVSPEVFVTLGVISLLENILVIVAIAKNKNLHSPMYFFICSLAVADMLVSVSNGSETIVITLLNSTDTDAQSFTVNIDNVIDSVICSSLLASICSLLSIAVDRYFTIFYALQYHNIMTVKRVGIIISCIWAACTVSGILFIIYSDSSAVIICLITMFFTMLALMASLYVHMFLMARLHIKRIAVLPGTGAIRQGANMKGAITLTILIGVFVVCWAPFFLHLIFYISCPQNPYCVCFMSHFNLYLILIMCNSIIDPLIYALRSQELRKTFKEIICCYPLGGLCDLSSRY

[3] = IV feeding study in male Sprague-Dawley rats; format: in vivo, rat; details: 1 mg/kg, 24 hour period
Description: as §1, with “peptides. Male Sprague-Dawley rats” for “peptides. Rats with indwelling intracerebroventricular cannulas (ICV rats)”, “from Taconic (Germantown, N.Y.).” for “from Hilltop Lab Animals, Inc. (Scottdale, Pa.).”, “dosed IV or IP” for “dosed ICV”, “peptides (0.5-3 mg/kg).” for “peptides (0.1-3 nmol).”, “to determined” for “to determine”
Briefly, male Sprague-Dawley rats (300-350 g) were individually housed in shoe box cages with a 12 hour light/dark period. Food intake and body weights were monitored for 24 hours prior to the start of the study. Rats were randomized by body weight and then dosed just before lights-off with the compound of Example 11 or the same volume of vehicle. A pre-weighed amount of food was provided and food intake was determined at 2, 4, 20 and 24 hours.

MC1-R [4] = target: T2, MC1-R (Mus musculus, UniProt Q01727); test: Competitive inhibition binding assay using [I125]-NDP-α-MSH, MC1-R (B-16 mouse melanoma cell membranes); details: read-out: Ki (nM) MC1-R; B-16 mouse melanoma cells
T2 sequence (Q01727 whole entry): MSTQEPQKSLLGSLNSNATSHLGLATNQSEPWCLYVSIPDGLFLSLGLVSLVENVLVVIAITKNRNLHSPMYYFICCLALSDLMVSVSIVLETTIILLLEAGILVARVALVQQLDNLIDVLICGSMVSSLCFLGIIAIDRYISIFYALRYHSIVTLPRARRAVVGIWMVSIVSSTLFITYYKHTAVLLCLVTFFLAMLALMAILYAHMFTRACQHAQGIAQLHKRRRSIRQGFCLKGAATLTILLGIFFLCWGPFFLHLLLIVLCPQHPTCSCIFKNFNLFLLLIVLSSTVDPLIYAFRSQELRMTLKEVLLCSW

MC1-R [5] = target: T2, MC1-R; test: cAMP functional assay, MC1-R (B-16 mouse melanoma cells); format: cell-based; details: read-out: EC50 as to MC1-R
hMC3-R [6] = target: T1, hMC3-R; test: cAMP functional assay, hMC3-R (HEK-293 cells); format: cell-based; set-up: expressed in transfected cells; host or cells: HEK-293

T1 sequence (P41968 whole entry): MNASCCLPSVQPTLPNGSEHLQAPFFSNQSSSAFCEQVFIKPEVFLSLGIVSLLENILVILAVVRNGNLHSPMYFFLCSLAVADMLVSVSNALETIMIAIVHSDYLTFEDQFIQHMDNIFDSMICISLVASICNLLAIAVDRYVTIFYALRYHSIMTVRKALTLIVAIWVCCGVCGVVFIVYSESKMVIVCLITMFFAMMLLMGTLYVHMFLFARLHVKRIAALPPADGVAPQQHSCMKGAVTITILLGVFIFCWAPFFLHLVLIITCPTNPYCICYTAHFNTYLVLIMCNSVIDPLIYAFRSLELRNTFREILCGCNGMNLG

Ac-cyclo(-Asp-Trp-D-Nal 2-Arg-Nal 2-Lys)-NH2 [Example 11]
Ki (hMC3-R [1]): 2 nM
average increase in food intake ([2]; 0.1 nmol): 4%
average increase in food intake ([2]; 0.3 nmol): 18%
average increase in food intake ([2]; 1.0 nmol): 20%
Ki (hMC4-R): 0.03 nM
increase in food intake [3]: 8%
Ki (MC1-R [4]): 5680 nM
EC50 (MC1-R [5]): > 1000 nM
agonist/antagonist status as to MC3-R (hMC3-R [6]): inactive
